From the RepoRT retention time repository (doi:10.1007/s00216-021-03828-0)

Tests used:
Settings in all cases: stereoisomer not certain
[1] = RP, Merck Supelco Ascentis Express C18, 100 × 2.1 mm, 2 µm, 39 °C, 0.3 mL/min, estimated dead time 0.73 min; A: water + 0.1% formic acid, pH 3; B: acetonitrile + 0.1% formic acid, pH 3; gradient (min/%B) 0/5 2/5 17/99.9 20/99.9
[2] = RP, Merck Supelco Ascentis Express C18, 100 × 2.1 mm, 2 µm, 40 °C, 0.35 mL/min, estimated dead time 0.63 min; A: water + 0.1% formic acid, pH 3; B: acetonitrile + 0.1% formic acid, pH 3; gradient (min/%B) 0/5 2/5 17/99.9 20/99.9
[3] = RP, Merck Supelco Ascentis Express C18, 100 × 2.1 mm, 2 µm, 40 °C, 0.25 mL/min, estimated dead time 0.88 min; A: water + 0.1% formic acid, pH 3; B: acetonitrile + 0.1% formic acid, pH 3; gradient (min/%B) 0/5 2/5 17/99.9 20/99.9
[4] = RP, Merck Supelco Ascentis Express C18, 100 × 2.1 mm, 2 µm, 40 °C, 0.4 mL/min, estimated dead time 0.55 min; A: water + 0.1% formic acid, pH 3; B: acetonitrile + 0.1% formic acid, pH 3; gradient (min/%B) 0/5 2/5 17/99.9 20/99.9
[5] = RP, Merck Supelco Ascentis Express C18, 100 × 2.1 mm, 2 µm, 40 °C, 0.2 mL/min, estimated dead time 1.1 min; A: water + 0.1% formic acid, pH 3; B: acetonitrile + 0.1% formic acid, pH 3; gradient (min/%B) 0/5 2/5 17/99.9 20/99.9
[6] = as above; remark: listed apart in the source
[7] = RP, Merck Supelco Ascentis Express C18, 100 × 2.1 mm, 2 µm, 40 °C, 0.4 mL/min, estimated dead time 0.55 min; A: water + 0.1% formic acid, pH 3; B: acetonitrile + 0.1% formic acid, pH 3; gradient (min/%B) 0/5 2/5 17/99.9 20/99.9; remark: listed apart in the source

Row | Structure (SMILES) | LC retention time [1] | LC retention time [2] | LC retention time [3] | LC retention time [4] | LC retention time [5] | LC retention time [6] | LC retention time [7]
1 | O=C(O)c1ccc(=O)[nH]c1 [6-HYDROXYNICOTINATE] | 1.06 min | 0.887 min | 1.26 min | 0.787 min | 1.59 min | 1.59 min | 0.773 min
2 | O=C(O)CCCCCCCCCO [10-HYDROXYDECANOATE] | 7.1 min | 6.8 min | 7.49 min | 6.58 min | 8.03 min | 8.02 min | 6.55 min
3 | Nc1ccccc1S(=O)(=O)O [ANILINE-2-SULFONATE] | 1.18 min | 0.95 min | 1.38 min | 0.847 min | 1.74 min | 1.76 min | 0.823 min
4 | O=C(O)CCCCCCCC(=O)O [AZELATE] | 6.09 min | 5.73 min | 6.39 min | 5.57 min | 6.98 min | 6.89 min | 5.49 min
5 | O=C(O)c1ccccc1 [BENZOATE] | 4.34 min | 5.55 min | 6.4 min | 5.28 min | 7.03 min | 7.03 min | 5.23 min
6 | O=C(O)CCCCC1SCC2NC(=O)NC21 (stereo not drawn) [BIOTIN] | 4.62 min | 4.34 min | 4.96 min | 4.14 min | 5.44 min | 5.44 min | 4.11 min
7 | CC(CCC(=O)O)C1CCC2C3C(O)CC4CC(O)CCC4(C)C3CC(O)C12C (stereo not drawn) [CHOLATE] | 9.4 min | 9.14 min | 9.77 min | 8.94 min | 10.3 min | 10.3 min | 8.9 min

Further lines, results first:

Row | LC retention time [1] | LC retention time [2] | LC retention time [3] | LC retention time [4] | LC retention time [5] | LC retention time [6] | LC retention time [7] | Structure (SMILES)
8 | 8.25 min | 7.95 min | 8.66 min | 7.73 min | 9.2 min | 9.16 min | 7.69 min | CC12CCC(=O)C=C1CCC1C2CCC2(C)C1CCC2(O)C(=O)CO (stereo not drawn) [CORTEXOLONE]
9 | 8.64 min | 8.33 min | 9.05 min | 8.09 min | 9.62 min | 9.62 min | 8.05 min | CC(=O)OCC(=O)C1(O)CCC2C3CCC4=CC(=O)CCC4(C)C3C(O)CC21C (stereo not drawn) [CORTISOL 21-ACETATE]
10 | 7.17 min | 6.88 min | 7.53 min | 6.69 min | 8.04 min | 8.03 min | 6.65 min | CC12CCC(=O)C=C1CCC1C2C(O)CC2(C)C1CCC2(O)C(=O)CO (stereo not drawn) [CORTISOL]
11 | 7.21 min | 6.91 min | 7.56 min | 6.73 min | 8.09 min | 8.07 min | 6.69 min | CC12CCC(=O)C=C1CCC1C2C(=O)CC2(C)C1CCC2(O)C(=O)CO (stereo not drawn) [CORTISONE]
12 | 0.943 min | 0.82 min | 1.13 min | 0.703 min | 1.44 min | 1.47 min | 0.707 min | Nc1nc2c(ncn2C2CC(O)C(CO)O2)c(=O)[nH]1 (stereo not drawn) [DEOXYGUANOSINE]
13 | 0.953 min | 0.81 min | 1.12 min | 0.697 min | 1.41 min | 1.42 min | 0.68 min | O=c1ccn(C2CC(O)C(CO)O2)c(=O)[nH]1 (stereo not drawn) [DEOXYURIDINE]
14 | 5.15 min | 4.81 min | 5.43 min | 4.58 min | 5.96 min | 5.92 min | 4.54 min | CC1NC(=O)NC1CCCCCC(=O)O (stereo not drawn) [DETHIOBIOTIN]
